Usually IC50 stands for the midpoint of a concentration-inhibition curve.

This passage reports IC50 results from EP4385979A1 (Grünenthal GmbH, priority 2022, dated 2024).

T1 sequence (Q9Y5Y9 whole entry): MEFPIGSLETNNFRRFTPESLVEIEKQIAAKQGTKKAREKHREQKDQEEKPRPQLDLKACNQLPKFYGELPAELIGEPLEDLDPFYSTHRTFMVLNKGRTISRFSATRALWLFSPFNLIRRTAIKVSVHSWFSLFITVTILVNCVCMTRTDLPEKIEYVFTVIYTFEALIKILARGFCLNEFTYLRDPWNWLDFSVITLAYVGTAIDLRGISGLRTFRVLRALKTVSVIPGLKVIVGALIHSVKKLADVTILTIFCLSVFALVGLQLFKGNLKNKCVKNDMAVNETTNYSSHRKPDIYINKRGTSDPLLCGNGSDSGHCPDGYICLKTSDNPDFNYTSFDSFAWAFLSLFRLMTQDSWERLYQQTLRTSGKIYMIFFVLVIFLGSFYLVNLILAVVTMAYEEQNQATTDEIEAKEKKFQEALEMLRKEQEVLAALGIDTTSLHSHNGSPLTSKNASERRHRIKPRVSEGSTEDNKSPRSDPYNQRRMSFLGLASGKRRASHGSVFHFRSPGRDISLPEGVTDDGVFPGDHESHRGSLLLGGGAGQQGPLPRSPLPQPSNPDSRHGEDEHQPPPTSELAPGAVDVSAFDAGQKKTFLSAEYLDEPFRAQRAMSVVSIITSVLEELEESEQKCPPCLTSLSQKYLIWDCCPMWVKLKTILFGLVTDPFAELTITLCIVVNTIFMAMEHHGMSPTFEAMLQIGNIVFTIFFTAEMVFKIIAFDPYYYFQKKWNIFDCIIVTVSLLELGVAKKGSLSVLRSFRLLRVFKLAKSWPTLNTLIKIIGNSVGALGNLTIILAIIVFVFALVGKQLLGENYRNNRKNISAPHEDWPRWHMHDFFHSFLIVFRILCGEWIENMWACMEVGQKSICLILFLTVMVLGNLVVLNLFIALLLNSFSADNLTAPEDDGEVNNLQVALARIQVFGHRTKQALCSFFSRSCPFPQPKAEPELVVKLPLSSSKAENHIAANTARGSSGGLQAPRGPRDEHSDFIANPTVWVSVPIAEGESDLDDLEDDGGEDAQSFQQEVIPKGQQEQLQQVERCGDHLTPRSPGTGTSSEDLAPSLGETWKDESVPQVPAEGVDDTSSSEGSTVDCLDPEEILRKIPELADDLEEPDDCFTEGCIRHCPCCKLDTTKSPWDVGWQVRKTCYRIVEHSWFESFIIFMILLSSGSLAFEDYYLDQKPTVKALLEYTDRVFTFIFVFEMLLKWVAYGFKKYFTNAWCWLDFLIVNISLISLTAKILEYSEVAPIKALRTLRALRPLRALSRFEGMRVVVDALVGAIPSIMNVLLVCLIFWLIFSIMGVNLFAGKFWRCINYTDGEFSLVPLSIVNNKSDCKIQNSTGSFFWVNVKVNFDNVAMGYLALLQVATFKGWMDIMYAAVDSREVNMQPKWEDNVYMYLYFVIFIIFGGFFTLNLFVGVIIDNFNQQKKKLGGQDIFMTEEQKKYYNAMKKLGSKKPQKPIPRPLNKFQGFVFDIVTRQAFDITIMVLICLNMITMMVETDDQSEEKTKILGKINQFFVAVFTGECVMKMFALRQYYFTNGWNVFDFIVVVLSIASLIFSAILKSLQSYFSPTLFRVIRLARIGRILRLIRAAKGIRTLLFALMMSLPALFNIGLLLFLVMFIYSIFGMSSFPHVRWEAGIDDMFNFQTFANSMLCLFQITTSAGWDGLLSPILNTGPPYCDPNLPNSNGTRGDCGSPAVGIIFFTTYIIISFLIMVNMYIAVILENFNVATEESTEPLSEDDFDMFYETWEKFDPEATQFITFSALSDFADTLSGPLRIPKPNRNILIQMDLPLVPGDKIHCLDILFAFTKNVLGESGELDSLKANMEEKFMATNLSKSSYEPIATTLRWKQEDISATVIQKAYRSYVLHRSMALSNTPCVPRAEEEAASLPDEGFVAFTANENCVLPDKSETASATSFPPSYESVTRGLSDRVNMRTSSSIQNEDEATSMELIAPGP

This assay concerns the target T1, human NaV1.8 (Homo sapiens, UniProt Q9Y5Y9).
T1 construct: expressed in transfected cells; host or cells: HEK
The assay is described as follows: Electrophysiology: voltage-clamp recordings, whole-cell patch clamp on Qube384 automated platform. To be noted: HEK-NaV1.8 (NM 006514.1) with b3 recombinant cell line, multi hole plates, ambient room temperature, read-out: Potency category (human NaV1.8 IC50). The class given is cell-based. How it is done:
Electrophysiology: Voltage-Clamp recordings
The following NaV1.8 recombinant cell line was used for recordings: HEK-NaV1.8 (NM 006514.1) with b3 (NM_018400.3).
Sodium currents were measured using the patch clamp technique in the whole-cell configuration using the Qube384 (Sophion A/S, Copenhagen, Denmark) automated voltage clamp platform. "Multi hole" plates were used for the cell line expressing NaV1.8 while "single hole" plates were used for the recombinant cell lines expressing the other subtypes. Appropriate filters (for minimum seal resistance and minimum current size) and series resistance compensation (for high quality sodium channel recordings) were applied. Data was collected at ambient room temperature.
The recording […] solution contained (in mM): NaCl 145 mM, KCl 4 mM, CaCl2 2 mM, MgCl2 1 mM, HEPES 10 mM, Glucose 10 mM, pH 7.4 (NaOH). The […] recording solution contained (in mM): CsF 120 mM, CsCl 20 mM, NaCl 10 mM, EGTA 10 mM, HEPES 10 mM, pH 7.2 (CsOH). Currents were recorded at 25 kHz sampling frequency and filtered at 5 kHz. Series resistance compensation was applied at 65%.
Vehicle (VEH) is the control condition where cells are exposed to 0.3 % DMSO without compound. All runs include VEH controls being exposed to the same voltage protocols to assess non-compound related phenomena such as run down and then used to isolate compound dependent effects on currents.
To check for state-dependence inhibition, the following voltage-sequence was applied every 20 seconds: From a resting membrane potential of-120 mV, the first test pulse (P1; 20 ms to -10 mV) was applied to check for channels in the Resting State followed by a brief recovery (20 ms to -120 mV), then holding the membrane voltage to V1/2 (4 seconds at voltage to obtain half the channel at Rest and half Inactivated) with a subsequent second test pulse (P2; 20 ms to -10 mV) to check for channels in the Inactivated State, followed by another brief recovery (20 ms to -120 mV) and a final third test pulse (P3; 20 ms to -10 mV) to check for recovered channels.
To check for frequency-dependent inhibition, a 10 Hz protocol and a 20 Hz protocol were applied; namely,
From a resting membrane potential of -120 mV, 40-pulses (10 ms to -10 mV) was applied at 10 Hz (at 100 ms between pulses) and then at 20 Hz (at 50 ms between pulses). Each parameter was recorded (P1, P2, P3, P40 from 10Hz and P40 from 20Hz) during a control period (lasting ~ 5 minutes) when establishing the baseline and during compound period (lasting ~ 12 minutes) when test compound (or vehicle) was applied. For each parameter, the value at the end of the compound period was normalized to the vehicle baseline; as follows Normalized Inhibition (NormCPD) = (CPD Valueend CPD period)/(VEH Valueend Control Period) [formula]
To adjust for any variance in the Na^+ current signal during the compound period (owing to cumulative inactivation independent of compound or shifts in biophysics over time), a dedicated segment of the recording wells in each 384 plate were dedicated to having only vehicle exposure. These vehicle-only recordings were used to correct for any apparent "run-up" or "run-down" in the experiment. Normalized Inhibition (NormVEH) = (VEH Valueend CPD period)/(VEH Valueend Control Period) [formula]
The adjusted inhibition was calculated as follows: % Inhibitioncorrected = 100 × (NormCPD −NormVEH)/(100−NormVEH) [formula]
Percent inhibition was determined and IC50 values were calculated using a 4 parameter logistic model within XLFit Software (IDBS, Boston MA): % Inhibitioncorrected = A + ((B−A))/((1 + (((x)/(C)))^D) [formula] where A and B are the maximal and minimum inhibition respectively, C is the IC50 concentration and D is the (Hill) slope.
Background: The patch-clamp technique gives a direct electrical read-out from membranes.
With `NS(=O)(=O)c1cccc(NC(=O)c2c(C(F)(F)F)cnn2CC2CC3(CC3)C2)c1` [Example 34, 1-(spiro[2.3]hexan-5-ylmethyl)-N-(3-sulfamoylphenyl)-4-(trifluoromethyl)-1H-pyrazole-5-carboxamide], the IC50 was 100 to 1000 nM.

For `NS(=O)(=O)c1cccc(NC(=O)c2c(C(F)(F)F)cnn2CC23CCC(C2)C3)c1` [Example 35, 1-(bicyclo[2.1.1]hexan-1-ylmethyl)-N-(3-sulfamoylphenyl)-4-(trifluoromethyl)-1H-pyrazole-5-carboxamide], the IC50 is not above 100 nM.

`Cc1nn(CC23CCC(C2)C3)c(C(=O)Nc2ccc(F)c(C(N)=O)c2)c1C(F)(F)F` [Example 36, 1-(bicyclo[2.1.1]hexan-1-ylmethyl)-N-(3-carbamoyl-4-fluorophenyl)-3-methyl-4-(trifluoromethyl)-1H-pyrazole-5-carboxamide]: the half-inhibitory concentration (IC50) is not above 100 nM.

With `NC(=O)c1cc(NC(=O)c2c(C(F)(F)F)cnn2CC23CC(CO2)C3)ccc1F` [Example 37, 1-((2-oxabicyclo[2.1.1]hexan-1-yl)methyl)-N-(3-carbamoyl-4-fluorophenyl)-4-(trifluoromethyl)-1H-pyrazole-5-carboxamide], the concentration for half-maximal inhibition (IC50) lay within 1000 to 10000 nM.

With `NC(=O)c1cc(NC(=O)c2c(C(F)(F)F)cnn2CC23CC(C2)C3)ccc1F` [Example 38, 1-(bicyclo[1.1.1]pentan-1-ylmethyl)-N-(3-carbamoyl-4-fluorophenyl)-4-(trifluoromethyl)-1H-pyrazole-5-carboxamide], the half-inhibitory concentration (IC50) lay within 1000 to 10000 nM.

Regarding `Cc1nn(CC23CC(CO2)C3)c(C(=O)Nc2ccc(F)c(C(N)=O)c2)c1C(F)(F)F` [Example 39, 1-((2-oxabicyclo[2.1.1]hexan-1-yl)methyl)-N-(3-carbamoyl-4-fluorophenyl)-3-methyl-4-(trifluoromethyl)-1H-pyrazole-5-carboxamide], the IC50 lay in the range of 100 to 1000 nM.

For `Cc1nn(CC23CC(C2)C3)c(C(=O)Nc2ccc(F)c(C(N)=O)c2)c1C(F)(F)F` [Example 40, 1-(bicyclo[1.1.1]pentan-1-ylmethyl)-N-(3-carbamoyl-4-fluorophenyl)-3-methyl-4-(trifluoromethyl)-1H-pyrazole-5-carboxamide], the concentration for half-maximal inhibition (IC50) lay in the range of 100 to 1000 nM.

For `NC(=O)c1cc(NC(=O)c2c(C(F)(F)F)cnn2CC2CC3(CC3)C2)ccc1F` [Example 41, N-(3-carbamoyl-4-fluorophenyl)-1-(spiro[2.3]hexan-5-ylmethyl)-4-(trifluoromethyl)-1H-pyrazole-5-carboxamide], the IC50 lay within 100 to 1000 nM.

Turning to `NC(=O)c1cc(NC(=O)c2c(C(F)(F)F)cnn2CC23CCC(C2)C3)ccc1F` [Example 42, 1-(bicyclo[2.1.1]hexan-1-ylmethyl)-N-(3-carbamoyl-4-fluorophenyl)-4-(trifluoromethyl)-1H-pyrazole-5-carboxamide], the 50% inhibitory concentration (IC50) was not above 100 nM.

As for `CS(=O)(=O)n1cc(NC(=O)c2c(C(F)(F)F)cnn2CC23CC(C2)C3)cn1` [Example 47, 1-(bicyclo [1.1.1]pentan-1-ylmethyl)-N-(1-(methylsulfonyl)-1H-pyrazol-4-yl)-4-(trifluoromethyl)-1H-pyrazole-5-carboxamide], the half-inhibitory concentration (IC50) lay within 1000 to 10000 nM.

As to `CS(=O)(=O)n1cc(NC(=O)c2c(C(F)(F)F)cnn2CC2CC3(CC3)C2)cn1` [Example 48, N-(1-(methylsulfonyl)-1H-pyrazol-4-yl)-1-(spiro[2.3]hexan-5-ylmethyl)-4-(trifluoromethyl)-1H-pyrazole-5-carboxamide], the IC50 was in the range of 1000 to 10000 nM.

As for `CS(=O)(=O)n1cc(NC(=O)c2c(C(F)(F)F)cnn2CC23CCC(C2)C3)cn1` [Example 49, 1-(bicyclo[2.1.1]hexan-1ylmethyl)-N-(1-(methylsulfonyl)-1H-pyrazol-4-yl)-4-(trifluoromethyl)-1H-pyrazole-5-carboxamide], the IC50 lay in the range of 100 to 1000 nM.
